Data: patent US20110173718A1, “HERBICIDE TOLERANT PLANTS” (SYNGENTA CROP PROTECTION, INC., priority 2008, published 2011)
Values joined by “and” are separate entries in the source; they are usually repeats but may differ in a detail not shown here. Equal entries are not always repeated. Where two headings read alike, the source gives them in different places. Marks after values point to notes of the source that are not given here.

Legend:
[1] = biological target: T1, Chlamydomonas HST (Chlamydomonas reinhardtii, UniProt A1JHN0); assay: HST assay (TLC, MFBQ formed), recombinant Chlamydomonas HST in E. coli membranes; format: biochemical; conditions: for inhibition at 25 ppm: read-out: Chlamydomonas. HST % I at 25 ppm
T1 construct: GST (N); made in house; host or cells: E. coli (BL21A1 / BL21DE3), membrane fraction
T1 sequence (A1JHN0 51-370): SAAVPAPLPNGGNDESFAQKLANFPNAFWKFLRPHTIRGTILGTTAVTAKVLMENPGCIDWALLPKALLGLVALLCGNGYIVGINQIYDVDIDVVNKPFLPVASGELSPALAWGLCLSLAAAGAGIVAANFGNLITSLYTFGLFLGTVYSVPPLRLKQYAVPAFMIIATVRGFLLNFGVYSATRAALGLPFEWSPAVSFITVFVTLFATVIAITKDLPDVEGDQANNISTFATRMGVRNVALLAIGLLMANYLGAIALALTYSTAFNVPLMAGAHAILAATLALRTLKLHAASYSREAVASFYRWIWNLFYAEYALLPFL
Summary of the method: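 Recombinant GST-fused Chlamydomonas HST in E. coli membranes was incubated with 200 μM farnesyl diphosphate and 100 μM 14C-homogentisate in 50 mM Tricine-NaOH pH 8.5, 20 mM MgCl2 for ~20 min at 28 °C, with compounds in DMSO. Oxidised plus reduced MFBQ was quantified by TLC phosphorimaging. Results are percent inhibition versus no-inhibitor control across doses.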

[2] = test system: tobacco (var Samsun) plantlets on liquid culture medium; assay: HST + HPPD herbicide effects on tobacco seedlings on liquid culture medium; format: in vivo; conditions: for effect of low amounts of mesotrione on the injury down the dose response / % Injury, plus Mesotrione (0.0005 ppm) / % Injury, plus Mesotrione (0.001 ppm) / % Injury (bleaching), compound 2.13 only / % Injury (bleaching), mesotrione by itself: liquid culture; for effect of low amounts of mesotrione on the injury down the dose response: repeat experiments; for % Injury, plus Mesotrione (0.0005 ppm) / % Injury, plus Mesotrione (0.001 ppm) / % Injury (bleaching), compound 2.13 only / % Injury (bleaching), mesotrione by itself: 20 DAT; for % Injury (bleaching), mesotrione by itself: 0.75% v/v DMSO
Description: In an alternative herbicide test procedure tobacco (var Samsun) plantlets germinated aseptically in agar made up in 1/3 strength Murashige and Skoog salts medium are transferred after 4 d to float on top of 2.9 ml of sterile liquid culture medium (half strength Murashige and Skoog medium containing 30 mM sucrose) in wells of 12 well plates. Test compounds are added at various doses and bleaching damage is assessed after 14-20 DAT. The plantlets are kept covered under clear perspex and grown at 18° C. (night) and 24° C. (day) under a 1611 day (˜500-900 umol/m^2), 8 h darkness regime Plantlets continue to grow and produce new tissue over the 14-20 DAT period but are bleached and grow less in the presence of controlling concentrations of herbicide.

[3] = biological target: T2, Arabidopsis HST (Arabidopsis thaliana, UniProt Q1ACB3); assay: HST total extraction (non TLC) assay, recombinant Arabidopsis HST from insect cells; format: biochemical
T2 construct: GST (factor Xa cleavage site) (N); made in house; host or cells: Sf9 insect cells (baculovirus, pAcG3X), membrane fraction
T2 sequence (Q1ACB3 70-386): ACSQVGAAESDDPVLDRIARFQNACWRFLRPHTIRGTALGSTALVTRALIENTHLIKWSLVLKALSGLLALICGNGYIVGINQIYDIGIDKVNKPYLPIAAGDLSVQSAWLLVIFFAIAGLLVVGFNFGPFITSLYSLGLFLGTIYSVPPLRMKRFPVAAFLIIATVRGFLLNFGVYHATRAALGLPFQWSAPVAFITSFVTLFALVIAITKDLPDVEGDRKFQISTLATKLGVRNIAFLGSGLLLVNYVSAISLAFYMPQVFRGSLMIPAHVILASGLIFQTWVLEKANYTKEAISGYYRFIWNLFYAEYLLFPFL

[4] = TLC, estimated amount of MFBQ formed, relative to controls
[5] = 25 ppm, TLC, estimated amount of MFBQ formed, relative to controls
[6] = 0.19 ppm + mesotrione 0.001 ppm, liquid culture medium, 14 DAT
[7] = 0.19 ppm, liquid culture medium, 14 DAT
[8] = 0.58 ppm + mesotrione 0.001 ppm, liquid culture medium, 14 DAT
[9] = 0.58 ppm, liquid culture medium, 14 DAT
[10] = 1.7 ppm + mesotrione 0.001 ppm, liquid culture medium, 14 DAT
[11] = 1.7 ppm, liquid culture medium, 14 DAT
[12] = 5.2 ppm + mesotrione 0.001 ppm, liquid culture medium, 14 DAT
[13] = 5.2 ppm, liquid culture medium, 14 DAT
[14] = 16 ppm + mesotrione 0.001 ppm, liquid culture medium, 14 DAT
[15] = 16 ppm, liquid culture medium, 14 DAT
[16] = 47 ppm + mesotrione 0.001 ppm, liquid culture medium, 14 DAT
[17] = 47 ppm, liquid culture medium, 14 DAT
[18] = 3 point dose curves only conducted at 50 μM HPP
[19] = range of rates of compound 2.13 plus the higher dose of mesotrione

Q: What does the source list for `Oc1c(Cl)c(F)nc(F)c1Cl` [Compound 1.1, haloxydine]?
A: Chlamydomonas. HST % I at 10 ppm [1, 4]: 70%; inhibition at 25 ppm [1, 5]: 80%; Chlamydomonas. HST % I at 100 ppm [1, 4]: 95%; inhibition of the HST enzyme reaction (MFBQ and other products) ([1]; 500 ppm, stated for the HST enzyme preparations assayed): completely inhibits; % bleaching, +mesotrione 0.001 ppm [2, 6]: 100%; % bleaching, HST herbicide alone [2, 7]: 50%; % bleaching, +mesotrione 0.001 ppm [2, 8]: 100%; % bleaching, HST herbicide alone [2, 9]: 90%; % bleaching, +mesotrione 0.001 ppm [2, 10]: 100%; % bleaching, HST herbicide alone [2, 11]: 100%; % bleaching, +mesotrione 0.001 ppm [2, 12]: 100%; % bleaching, HST herbicide alone [2, 13]: 100%; % bleaching, +mesotrione 0.001 ppm [2, 14]: 100%; % bleaching, HST herbicide alone [2, 15]: 100%; % bleaching, +mesotrione 0.001 ppm [2, 16]: 100%; % bleaching, HST herbicide alone [2, 17]: 100%; effect of low amounts of mesotrione on the injury down the dose response [2]: clear synergistic effects

Q: `O=c1c(-c2c(F)ccc(F)c2Cl)c(O)c2nccnc2n1CC(F)F` [Compound 2.3] was tested. Which “Estimated IC50 (ppm)” value [3, 18] did it give?
A: 19* ppm

Q: And the “Chlamydomonas. HST % I at 10 ppm” value [1, 4]?
A: 40%

Q: And the “Chlamydomonas. HST % I at 100 ppm” value [1, 4]?
A: 85%

Q: `O=c1c(-c2c(F)ccc(Br)c2Cl)c(O)c2nccnc2n1CC(F)F` [Compound 2.8] was tested. Which “Estimated IC50 (ppm)” value [3] did it give?
A: 12 ppm

Q: And the inhibition at 25 ppm [1, 5]?
A: 85%

Q: What does the source list for `O=c1c(-c2cc(C(F)(F)F)ccc2Cl)c(O)c2nccnc2n1CC(F)F` [Compound 2.9]?
A: Estimated IC50 (ppm) [3]: 6 ppm; inhibition at 25 ppm [1, 5]: 90%

Q: What does the source list for `O=c1c(-c2c(F)ccc(F)c2Cl)c(O)c2cccnc2n1CC(F)F` [Compound 2.13]?
A: Estimated IC50 (ppm) [3, 18]: 54* ppm; Chlamydomonas. HST % I at 25 ppm [1, 5]: 60%; % Injury, plus Mesotrione (0.0005 ppm) ([2]; compound 2.13 0.01 ppm + mesotrione 0.0005 ppm): 0%; % Injury, plus Mesotrione (0.001 ppm) ([2]; compound 2.13 0.01 ppm + mesotrione 0.001 ppm): 40%; % Injury (bleaching), compound 2.13 only ([2]; compound 2.13 0.01 ppm): 0%; % Injury, plus Mesotrione (0.0005 ppm) ([2]; compound 2.13 0.03 ppm + mesotrione 0.0005 ppm): 0%; % Injury, plus Mesotrione (0.001 ppm) ([2]; compound 2.13 0.03 ppm + mesotrione 0.001 ppm): 60%; % Injury (bleaching), compound 2.13 only ([2]; compound 2.13 0.03 ppm): 0%; % Injury, plus Mesotrione (0.0005 ppm) ([2]; compound 2.13 0.09 ppm + mesotrione 0.0005 ppm): 0%; % Injury, plus Mesotrione (0.001 ppm) ([2]; compound 2.13 0.09 ppm + mesotrione 0.001 ppm): 80%; % Injury (bleaching), compound 2.13 only ([2]; compound 2.13 0.09 ppm): 0%; % Injury, plus Mesotrione (0.0005 ppm) ([2]; compound 2.13 0.28 ppm + mesotrione 0.0005 ppm): 0%; % Injury, plus Mesotrione (0.001 ppm) ([2]; compound 2.13 0.28 ppm + mesotrione 0.001 ppm): 80%; % Injury (bleaching), compound 2.13 only ([2]; compound 2.13 0.28 ppm): 0%; % Injury, plus Mesotrione (0.0005 ppm) ([2]; compound 2.13 0.85 ppm + mesotrione 0.0005 ppm): 40%; % Injury, plus Mesotrione (0.001 ppm) ([2]; compound 2.13 0.85 ppm + mesotrione 0.001 ppm): 90%; % Injury (bleaching), compound 2.13 only ([2]; compound 2.13 0.85 ppm): 0%; % Injury, plus Mesotrione (0.0005 ppm) ([2]; compound 2.13 2.56 ppm + mesotrione 0.0005 ppm): 90%; % Injury, plus Mesotrione (0.001 ppm) ([2]; compound 2.13 2.56 ppm + mesotrione 0.001 ppm): 90%; % Injury (bleaching), compound 2.13 only ([2]; compound 2.13 2.56 ppm): 0%; % Injury, plus Mesotrione (0.0005 ppm) ([2]; compound 2.13 7.67 ppm + mesotrione 0.0005 ppm): 100%; % Injury, plus Mesotrione (0.001 ppm) ([2]; compound 2.13 7.67 ppm + mesotrione 0.001 ppm): 100%; % Injury (bleaching), compound 2.13 only ([2]; compound 2.13 7.67 ppm): 50%; % Injury, plus Mesotrione (0.0005 ppm) ([2]; compound 2.13 23 ppm + mesotrione 0.0005 ppm): 100%; % Injury, plus Mesotrione (0.001 ppm) ([2]; compound 2.13 23 ppm + mesotrione 0.001 ppm): 100%; % Injury (bleaching), compound 2.13 only ([2]; compound 2.13 23 ppm): 100%; bleaching expected (Colby) [2, 19]: 20%; bleaching observed [2, 19]: 80% and 90%

Q: Which “Estimated IC50 (ppm)” value [3] does the source give for `O=c1c(-c2c(Cl)ccc(Cl)c2Cl)c(O)c2nccnc2n1CC(F)F` [Compound 2.14] here?
A: 9 ppm

Q: And the inhibition at 25 ppm [1, 5]?
A: 85%

Q: What does the source list for `O=c1c(-c2c(F)ccc(Br)c2Cl)c(O)c2cccnc2n1CC(F)F` [Compound 2.15]?
A: Estimated IC50 (ppm) [3]: 12 ppm; % bleaching, +mesotrione 0.001 ppm [2, 6]: 0%; % bleaching, HST herbicide alone [2, 7]: 5%; % bleaching, +mesotrione 0.001 ppm [2, 8]: 5%; % bleaching, HST herbicide alone [2, 9]: 0%; % bleaching, +mesotrione 0.001 ppm [2, 10]: 80%; % bleaching, HST herbicide alone [2, 11]: 5%; % bleaching, +mesotrione 0.001 ppm [2, 12]: 70%; % bleaching, HST herbicide alone [2, 13]: 40%; % bleaching, +mesotrione 0.001 ppm [2, 14]: 100%; % bleaching, HST herbicide alone [2, 15]: 100%; % bleaching, +mesotrione 0.001 ppm [2, 16]: 100%; % bleaching, HST herbicide alone [2, 17]: 100%; effect of low amounts of mesotrione on the injury down the dose response [2]: clear synergistic effects

Q: With `CS(=O)(=O)c1ccc(C(=O)C2C(=O)CCCC2=O)c([N+](=O)[O-])c1` [Mesotrione, mesotrione, reference compound] as the compound, how does the “damage by mesotrione alone” value ([2]; lower dose of mesotrione used in the mixtures) read?
A: no visible damage

Q: What about the “% Injury (bleaching), mesotrione by itself” value ([2]; mesotrione 0.0005 ppm) of the same compound?
A: 0%

Q: And the “% bleaching, mesotrione by itself” value ([2]; mesotrione 0.001 ppm, 0.75% DMSO, liquid culture medium, 14 DAT)?
A: 5%

Q: And the “% Injury (bleaching), mesotrione by itself” value ([2]; mesotrione 0.001 ppm)?
A: 20%
